{"source": "patent US5681738A", "about": "“Use of 10-oxo-trans-8-decenoic acid in mushroom cultivation” (The Penn State Research Foundation, priority 1992, dated 1997)", "key": {"[1]": {"tested_on": "Agaricus bisporus mycelia", "experiment": "Linear growth rate of mycelia on potato dextrose yeast (PDY) agar at 25° C.", "type": "cell-based, Agaricus bisporus (hybrid off-white)", "settings": "for linear growth rate of mycelia (in words): PDY agar; for Linear growth rate: control 5.66", "procedure": "The commercial mushroom spawn (hybrid off-white), Agaricus bisporus (Lange) Imbach, was obtained from Alpha Spawn Co., Avondale, Pa., and inoculated onto potato dextrose yeast (PDY) agar (Difco) and incubated at 25° C. A pure culture was obtained from the grain spawn grown on petri dishes and re-inoculated into PDY agar and maintained at 25° C. before use.\nThe mushroom culture was grown on PDY agar or in PDY broth, both containing 0.5% yeast extract. The broth was dispensed into flasks prior to autoclaving, 50 mL. per flask, while 5 mL of sterile ODA solutions were aseptically added into flasks before inoculation.\nTo prepare ODA solutions, about 18.4 mg (0.1 mmole) of 10-oxo-trans-8-decenoic acid prepared as described above were dissolved in i mL ethanol and diluted with deionized water to 100 mL to give a molar concentration of 10^-3 M, and then diluted in order to add 1.0 mL of the solutions to each flask to give the required final concentrations.\nSterile ODA solutions were aseptically added into the autoclaved agar medium to achieve the desired final ODA concentrations, and then the medium was dispensed into petri dishes, ca 30 ml per dish. The levels of ODA tested included 2×10^-4, 10^-4, 10^-5, 10^-6 and 10^-7 M for both PDY agar and broth. […]\nMethods for the estimation of total fungal growth include the measurement of dry matter, linear growth, carbon dioxide evolution, chitin, ATP as well as extracellular laccase activity (Cochrane, (1958); Wood, (1979)). In this research the linear growth rate was used to examine the growth of mushroom mycelia on agar plates, while the extracellular laccase activity and dry matter were determined to estimate the growth of mycelia in liquid cultures. Extracellular laccases (p-diphenol: oxygen oxidoreductase, EC 1.10.3.2) produced by various classes of fungi are reported to be involved in biotransformation of lignin and lignosulfonate (Anders et al., (1976)), as well as in the breakdown of cellulose by cellulase (Westermark et al., (1974a); Westermark et al., (1974b); Haars et al., (1980)). Although the role of laccase in growth and development of Agaricus bisporus is not well defined, it has been observed that laccase production correlated with mycelial biomass of this fungus (Wood, (1979); Matcham et al., (1985); Claydon et al., (1988))."}, "[2]": {"tested_on": "separated stipes of Agaricus bisporus", "experiment": "Elongation of separated stipes on test agar containing mushroom supernatants, 6-day storage at 12° C.", "set-up": "species or system Agaricus bisporus (off-white)", "settings": "as a function of added ODA", "description": "Whole stipes were cut at the lower portions to a length of 7-9 mm to standardize the sample, and marked at the middle of the veil, which is the location where the veil attaches to the stipe, to indicate the upper and lower stipes. The separated stipes contained 2-4 mm of upper stipes and 5-6 nun of lower stipes. […] The length of separated stipes and upper stipes was measured using a vernier caliper before and after certain days of storage.\nSterile mushroom supernatants (25 mL), phosphate buffer and deionized H2 O were added aseptically into 175 mL agar solution prior to dispensing into dishes. […] The concentrations of ODA in the 2% agar were calculated to be 3.4×10^-6, 6.0×10^-5, and 1.2×10^-4 M for treatments 3, 4 and 5. […]"}, "[3]": {"tested_on": "separated stipes of Agaricus bisporus", "experiment": "Elongation of upper stipes of separated stipes (upper and lower portions) on test agar containing ODA, 3-day storage at 12° C.", "set-up": "species or system Agaricus bisporus (hybrid off-white)", "settings": "for % Elongation of upper stipes, Mean: control 14.4", "procedure": "Four type strains of mushrooms were used: the white, off-white, hybrid white (U3) and hybrid off-white (U1). Mushrooms from each flush were harvested before the veil was broken. Freshly harvested mushrooms were transported within about one hour after harvest to Borland Laboratory and placed in the pilot plant cold room (4° C.) for about two hours before sampling. Mushrooms were sorted on the basis of size and appearance. Diseased, damaged, misshapen, veil-opened and extremely large or small mushrooms (>40 or <25 mm in cap diameter) were discarded. Mushrooms of uniform size (25-40 mm) and maturity of the button stage (stage 1, veil intact tightly) were used in this research.\nWhole stipes were cut at the lower portions to a length of 7-9 mm to standardize the sample, and marked at the middle of the veil, which is the location where the veil attaches to the stipe, to indicate the upper and lower stipes. The separated stipes contained 2-4 mm of upper stipes and 5-6 nun of lower stipes. For the study using separated upper stipes, mushrooms were dissected directly into upper stipes with a length of 3-5 mm. The separated stipes or upper stipes were put upside down on the test agar containing various mushroom supernatants or ODA concentrations; i.e., the upper sides in contact with the agar surface (FIG. 12). All petri dishes were covered and stored at 12° C. The length of separated stipes and upper stipes was measured using a vernier caliper before and after certain days of storage.\nSterile ODA solutions were aseptically added into the autoclaved agar solutions to achieve the desired final ODA concentrations. The agar solution was then dispensed into dishes, ca 20.8 mL per dish. The level of ODA tested included 10^-4, 10^-5, 10^-6, 10^-7, and 10^-8 M. Mushrooms (hybrid off-white) from 6 different crops were used to study their postharvest growth. In the first 2 experiments, mushroom stipes were measured after 4-day storage at 12° C. In order to prevent stipe deterioration and desiccation of the test agar, in the following experiments mushroom stipes were measured after 3-day storage at 12° C.\nThe experimental data were subjected to a single classification analysis of variance (AOV) for a completely randomized design (Steele et al., 1980). Fisher's protected least significant difference (LSD) was applied to separate the means. The level of significance used in this research was 0.05.\nODA stimulated the elongation of upper stipes in excess of the control, but the response occurred only when the lower portions were present. The additional elongation of upper stipes was stimulated by ODA at a concentration as low as 10^-8 M (0.00184 ppm)."}, "[4]": {"experiment": "Dissociation constant by titration with ethanolic NaOH", "type": "physicochemical", "settings": "water; aqueous solution; Henderson-Hasselbalch; standard deviation 10^0.04; read-out: dissociation constant (Ka)", "procedure": "The purity of ODA was then determined by titration with ethanolic NaOH. The molarity of NaOH was standardized by anhydrous oxalic acid which was dried overnight at 100° C. Three points in the titration curve, with the ratios of [A-] to [HA] equal to 1/3, 1/1 and 3/1, respectively, were chosen for the calculation of the dissociation constant (Ka) of ODA based on the Henderson-Hasselbalch equation (Mathews et al., (1990)): […]"}, "Solubility": {"experiment": "Solubility", "type": "physicochemical"}}}
{"smiles": "O=C/C=C/CCCCCCC(=O)O", "note": "[ODA, 10-oxo-trans-8-decenoic acid]", "values": [{"measurement": "linear growth rate of mycelia (in words)", "setting": "[1]; 2×10^-4 and 10^-4 M (36.8 and 18.4 ppm)", "result": "greatly increased"}, {"measurement": "linear growth rate of mycelia (in words)", "setting": "[1]; 10^-5 M (1.84 ppm)", "result": "slightly increased"}, {"measurement": "activity at 200 µM", "setting": "[1]; Agaricus bisporus, ODA 2 × 10^-4 M (36.8 ppm), control 1.00 d, significance letter a, read-out: Relative linear growth rate", "result": 188, "unit": "%"}, {"measurement": "activity at 100 µM", "setting": "[1]; Agaricus bisporus, ODA 10^-4 M (18.4 ppm), control 1.00 d, significance letter b, read-out: Relative linear growth rate", "result": 150, "unit": "%"}, {"measurement": "activity at 10 µM", "setting": "[1]; Agaricus bisporus, ODA 10^-5 M (1.84 ppm), control 1.00 d, significance letter c, read-out: Relative linear growth rate", "result": 114, "unit": "%"}, {"measurement": "activity at 1 µM", "setting": "[1]; Agaricus bisporus, ODA 10^-6 M (0.184 ppm), control 1.00 d, significance letters cd, read-out: Relative linear growth rate", "result": 110, "unit": "%"}, {"measurement": "activity at 0.1 µM", "setting": "[1]; Agaricus bisporus, ODA 10^-7 M (0.0184 ppm), control 1.00 d, significance letters cd, read-out: Relative linear growth rate", "result": 105, "unit": "%"}, {"measurement": "Linear growth rate", "setting": "[1]; ODA 2 × 10^-4 M (36.8 ppm) in PDY agar", "result": 9.85, "unit": "mm/wk"}, {"measurement": "Linear growth rate", "setting": "[1]; ODA 10^-4 M (18.4 ppm) in PDY agar", "result": 8.42, "unit": "mm/wk"}, {"measurement": "Linear growth rate", "setting": "[1]; ODA 10^-5 M (1.84 ppm) in PDY agar", "result": 6.40, "unit": "mm/wk"}, {"measurement": "Linear growth rate", "setting": "[1]; ODA 10^-6 M (0.184 ppm) in PDY agar", "result": 6.17, "unit": "mm/wk"}, {"measurement": "Linear growth rate", "setting": "[1]; ODA 10^-7 M (0.0184 ppm) in PDY agar", "result": 5.90, "unit": "mm/wk"}, {"measurement": "effect on mushroom mycelial growth (in words)", "setting": "[1]; PDY agar and broth, linear growth, dry matter and laccase activity", "result": "significant stimulatory effect"}, {"measurement": "elongation of lower stipes (in words)", "setting": "[2]", "result": "no differences"}, {"measurement": "minimal effective concentration", "setting": "[3]; Agaricus bisporus, 72 h, 0.00184 ppm, separated stipes with lower portions, read-out: lowest concentration stimulating additional elongation of upper stipes", "result": 0.01, "unit": "µM"}, {"measurement": "% Elongation of upper stipes, Mean", "setting": "[3]; ODA 10^-4 M (18.4 ppm)", "result": 30.0, "unit": "%"}, {"measurement": "% Elongation of upper stipes", "setting": "[3]; ODA 10^-4 M (18.4 ppm), rep 1, control 14.5", "result": 25.1, "unit": "%"}, {"measurement": "% Elongation of upper stipes", "setting": "[3]; ODA 10^-4 M (18.4 ppm), rep 2, control 11.6", "result": 30.5, "unit": "%"}, {"measurement": "% Elongation of upper stipes", "setting": "[3]; ODA 10^-4 M (18.4 ppm), rep 3, control 17.1", "result": 34.2, "unit": "%"}, {"measurement": "% Elongation of upper stipes, Mean", "setting": "[3]; ODA 10^-5 M (1.84 ppm)", "result": 27.7, "unit": "%"}, {"measurement": "% Elongation of upper stipes", "setting": "[3]; ODA 10^-5 M (1.84 ppm), rep 1, control 14.5", "result": 30.7, "unit": "%"}, {"measurement": "% Elongation of upper stipes", "setting": "[3]; ODA 10^-5 M (1.84 ppm), rep 2, control 11.6", "result": 25.0, "unit": "%"}, {"measurement": "% Elongation of upper stipes", "setting": "[3]; ODA 10^-5 M (1.84 ppm), rep 3, control 17.1", "result": 27.4, "unit": "%"}, {"measurement": "% Elongation of upper stipes, Mean", "setting": "[3]; ODA 10^-6 M (0.184 ppm)", "result": 29.5, "unit": "%"}, {"measurement": "% Elongation of upper stipes", "setting": "[3]; ODA 10^-6 M (0.184 ppm), rep 1, control 14.5", "result": 27.5, "unit": "%"}, {"measurement": "% Elongation of upper stipes", "setting": "[3]; ODA 10^-6 M (0.184 ppm), rep 2, control 11.6", "result": 24.7, "unit": "%"}, {"measurement": "% Elongation of upper stipes", "setting": "[3]; ODA 10^-6 M (0.184 ppm), rep 3, control 17.1", "result": 36.2, "unit": "%"}, {"measurement": "% Elongation of upper stipes, Mean", "setting": "[3]; ODA 10^-7 M (0.0184 ppm)", "result": 30.9, "unit": "%"}, {"measurement": "% Elongation of upper stipes", "setting": "[3]; ODA 10^-7 M (0.0184 ppm), rep 1, control 14.5", "result": 27.3, "unit": "%"}, {"measurement": "% Elongation of upper stipes", "setting": "[3]; ODA 10^-7 M (0.0184 ppm), rep 2, control 11.6", "result": 38.3, "unit": "%"}, {"measurement": "% Elongation of upper stipes", "setting": "[3]; ODA 10^-7 M (0.0184 ppm), rep 3, control 17.1", "result": 27.2, "unit": "%"}, {"measurement": "% Elongation of upper stipes, Mean", "setting": "[3]; ODA 10^-8 M (0.00184 ppm)", "result": 30.5, "unit": "%"}, {"measurement": "% Elongation of upper stipes", "setting": "[3]; ODA 10^-8 M (0.00184 ppm), rep 1, control 14.5", "result": 23.7, "unit": "%"}, {"measurement": "% Elongation of upper stipes", "setting": "[3]; ODA 10^-8 M (0.00184 ppm), rep 2, control 11.6", "result": 32.7, "unit": "%"}, {"measurement": "% Elongation of upper stipes", "setting": "[3]; ODA 10^-8 M (0.00184 ppm), rep 3, control 17.1", "result": 35.1, "unit": "%"}, {"measurement": "effect on upper stipe elongation (in words)", "setting": "[3]; all levels, only when lower portions present", "result": "significant effect"}, {"measurement": "pKa", "setting": "[4]", "result": 4.68}, {"measurement": "solubility", "setting": "Solubility; acetone, chloroform, ethanol, ethyl ether, methanol, methylene chloride and water", "result": "soluble"}, {"measurement": "solubility", "setting": "Solubility; non-polar solvents such as pentane, hexane, heptane and benzene", "result": "slightly soluble"}]}
